The record followed here is ChEMBL document CHEMBL3867477 (Bioorg Med Chem Lett, 2016).

Structures are written as SMILES. Converted amounts (≈) assume the structure as drawn. Some results are limits rather than exact numbers.

Chain of Voltage-dependent L-type calcium channel subunit alpha-1C (Q13936 whole entry): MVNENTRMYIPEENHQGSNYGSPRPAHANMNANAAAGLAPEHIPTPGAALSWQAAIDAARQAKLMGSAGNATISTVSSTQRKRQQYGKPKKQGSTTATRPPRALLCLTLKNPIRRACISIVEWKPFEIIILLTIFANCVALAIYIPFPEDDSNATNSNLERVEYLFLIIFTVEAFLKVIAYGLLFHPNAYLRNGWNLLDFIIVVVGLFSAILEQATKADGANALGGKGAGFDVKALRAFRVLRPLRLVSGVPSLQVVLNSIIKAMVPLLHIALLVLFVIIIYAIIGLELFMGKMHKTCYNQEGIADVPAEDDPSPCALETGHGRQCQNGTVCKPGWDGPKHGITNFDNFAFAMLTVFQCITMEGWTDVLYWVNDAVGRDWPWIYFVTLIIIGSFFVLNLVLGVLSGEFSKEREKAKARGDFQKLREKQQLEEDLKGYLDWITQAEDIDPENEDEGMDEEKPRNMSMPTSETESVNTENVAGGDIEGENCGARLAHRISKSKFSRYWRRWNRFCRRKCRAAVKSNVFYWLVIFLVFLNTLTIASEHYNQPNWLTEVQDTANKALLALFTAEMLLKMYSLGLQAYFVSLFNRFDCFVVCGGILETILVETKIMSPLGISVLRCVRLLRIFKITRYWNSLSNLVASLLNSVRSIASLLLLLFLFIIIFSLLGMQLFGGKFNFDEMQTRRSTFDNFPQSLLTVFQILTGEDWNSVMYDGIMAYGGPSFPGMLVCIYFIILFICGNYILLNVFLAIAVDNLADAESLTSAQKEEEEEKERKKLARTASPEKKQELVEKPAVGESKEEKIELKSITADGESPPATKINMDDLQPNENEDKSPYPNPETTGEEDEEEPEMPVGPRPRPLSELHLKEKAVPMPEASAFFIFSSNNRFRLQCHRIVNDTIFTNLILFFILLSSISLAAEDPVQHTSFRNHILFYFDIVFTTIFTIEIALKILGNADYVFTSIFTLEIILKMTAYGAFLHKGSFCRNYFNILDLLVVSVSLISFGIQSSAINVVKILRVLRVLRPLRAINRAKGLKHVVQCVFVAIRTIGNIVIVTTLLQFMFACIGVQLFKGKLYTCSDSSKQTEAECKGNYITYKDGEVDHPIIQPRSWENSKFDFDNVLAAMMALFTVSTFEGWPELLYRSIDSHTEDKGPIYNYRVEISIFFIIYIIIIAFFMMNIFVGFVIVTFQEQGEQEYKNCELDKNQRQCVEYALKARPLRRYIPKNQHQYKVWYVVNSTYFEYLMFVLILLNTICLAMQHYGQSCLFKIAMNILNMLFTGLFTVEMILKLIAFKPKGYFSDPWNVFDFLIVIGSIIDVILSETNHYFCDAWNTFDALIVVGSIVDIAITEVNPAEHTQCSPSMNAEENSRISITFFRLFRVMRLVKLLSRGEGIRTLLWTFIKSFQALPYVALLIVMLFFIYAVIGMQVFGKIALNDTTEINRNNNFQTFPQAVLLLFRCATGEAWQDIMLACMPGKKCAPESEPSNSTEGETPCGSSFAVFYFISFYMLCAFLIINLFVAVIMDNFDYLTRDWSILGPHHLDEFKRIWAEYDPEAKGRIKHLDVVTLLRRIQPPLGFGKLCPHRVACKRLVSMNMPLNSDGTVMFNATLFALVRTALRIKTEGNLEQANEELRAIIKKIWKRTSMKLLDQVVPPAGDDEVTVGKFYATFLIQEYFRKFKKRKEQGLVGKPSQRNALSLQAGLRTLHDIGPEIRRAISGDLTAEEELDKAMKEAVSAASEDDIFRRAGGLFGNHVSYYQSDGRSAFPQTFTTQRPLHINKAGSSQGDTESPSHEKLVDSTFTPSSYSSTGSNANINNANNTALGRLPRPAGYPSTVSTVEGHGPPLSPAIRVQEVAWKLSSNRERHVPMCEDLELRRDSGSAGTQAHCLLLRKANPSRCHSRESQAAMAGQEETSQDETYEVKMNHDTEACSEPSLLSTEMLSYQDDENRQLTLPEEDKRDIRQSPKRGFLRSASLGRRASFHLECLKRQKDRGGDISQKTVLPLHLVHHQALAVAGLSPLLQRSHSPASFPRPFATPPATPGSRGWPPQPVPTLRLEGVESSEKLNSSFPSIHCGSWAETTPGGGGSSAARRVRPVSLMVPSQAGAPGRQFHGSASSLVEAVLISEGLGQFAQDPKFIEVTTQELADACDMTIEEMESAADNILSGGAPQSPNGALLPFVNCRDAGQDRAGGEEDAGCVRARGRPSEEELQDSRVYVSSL

System in the first data set: not listed separately
In words: Aqueous solubility of the compound at pH 7. Type of data set: physicochemical. The settings on record: aqueous medium.
Molecule `O=C(c1ccnc2[nH]ccc12)N1CCC(F)(F)[C@@H](Oc2ccc3ccccc3n2)C1` had a solubility of over 150 µM.
Still for that read-out and setting: the value for `O=C(c1cccc2[nH]ccc12)N1CCC(F)(F)[C@@H](Oc2ccc3ccccc3n2)C1` was 13 µM (≈ 5.3 µg/mL); that for `O=C(c1nccc2[nH]ccc12)N1CCC(F)(F)[C@@H](Oc2ccc3ccccc3n2)C1` was over 150 µM; that for `O=C(c1ccccc1-n1nccn1)N1CCC(F)(F)[C@@H](Oc2ccc3ccccc3n2)C1` was under 26 µM.

In the next data set the target is Sodium channel protein type 5 subunit alpha (Homo sapiens, UniProt Q14524). In words: Inhibition of Nav1.5 (unknown origin).
Chain of Sodium channel protein type 5 subunit alpha (Q14524 whole entry): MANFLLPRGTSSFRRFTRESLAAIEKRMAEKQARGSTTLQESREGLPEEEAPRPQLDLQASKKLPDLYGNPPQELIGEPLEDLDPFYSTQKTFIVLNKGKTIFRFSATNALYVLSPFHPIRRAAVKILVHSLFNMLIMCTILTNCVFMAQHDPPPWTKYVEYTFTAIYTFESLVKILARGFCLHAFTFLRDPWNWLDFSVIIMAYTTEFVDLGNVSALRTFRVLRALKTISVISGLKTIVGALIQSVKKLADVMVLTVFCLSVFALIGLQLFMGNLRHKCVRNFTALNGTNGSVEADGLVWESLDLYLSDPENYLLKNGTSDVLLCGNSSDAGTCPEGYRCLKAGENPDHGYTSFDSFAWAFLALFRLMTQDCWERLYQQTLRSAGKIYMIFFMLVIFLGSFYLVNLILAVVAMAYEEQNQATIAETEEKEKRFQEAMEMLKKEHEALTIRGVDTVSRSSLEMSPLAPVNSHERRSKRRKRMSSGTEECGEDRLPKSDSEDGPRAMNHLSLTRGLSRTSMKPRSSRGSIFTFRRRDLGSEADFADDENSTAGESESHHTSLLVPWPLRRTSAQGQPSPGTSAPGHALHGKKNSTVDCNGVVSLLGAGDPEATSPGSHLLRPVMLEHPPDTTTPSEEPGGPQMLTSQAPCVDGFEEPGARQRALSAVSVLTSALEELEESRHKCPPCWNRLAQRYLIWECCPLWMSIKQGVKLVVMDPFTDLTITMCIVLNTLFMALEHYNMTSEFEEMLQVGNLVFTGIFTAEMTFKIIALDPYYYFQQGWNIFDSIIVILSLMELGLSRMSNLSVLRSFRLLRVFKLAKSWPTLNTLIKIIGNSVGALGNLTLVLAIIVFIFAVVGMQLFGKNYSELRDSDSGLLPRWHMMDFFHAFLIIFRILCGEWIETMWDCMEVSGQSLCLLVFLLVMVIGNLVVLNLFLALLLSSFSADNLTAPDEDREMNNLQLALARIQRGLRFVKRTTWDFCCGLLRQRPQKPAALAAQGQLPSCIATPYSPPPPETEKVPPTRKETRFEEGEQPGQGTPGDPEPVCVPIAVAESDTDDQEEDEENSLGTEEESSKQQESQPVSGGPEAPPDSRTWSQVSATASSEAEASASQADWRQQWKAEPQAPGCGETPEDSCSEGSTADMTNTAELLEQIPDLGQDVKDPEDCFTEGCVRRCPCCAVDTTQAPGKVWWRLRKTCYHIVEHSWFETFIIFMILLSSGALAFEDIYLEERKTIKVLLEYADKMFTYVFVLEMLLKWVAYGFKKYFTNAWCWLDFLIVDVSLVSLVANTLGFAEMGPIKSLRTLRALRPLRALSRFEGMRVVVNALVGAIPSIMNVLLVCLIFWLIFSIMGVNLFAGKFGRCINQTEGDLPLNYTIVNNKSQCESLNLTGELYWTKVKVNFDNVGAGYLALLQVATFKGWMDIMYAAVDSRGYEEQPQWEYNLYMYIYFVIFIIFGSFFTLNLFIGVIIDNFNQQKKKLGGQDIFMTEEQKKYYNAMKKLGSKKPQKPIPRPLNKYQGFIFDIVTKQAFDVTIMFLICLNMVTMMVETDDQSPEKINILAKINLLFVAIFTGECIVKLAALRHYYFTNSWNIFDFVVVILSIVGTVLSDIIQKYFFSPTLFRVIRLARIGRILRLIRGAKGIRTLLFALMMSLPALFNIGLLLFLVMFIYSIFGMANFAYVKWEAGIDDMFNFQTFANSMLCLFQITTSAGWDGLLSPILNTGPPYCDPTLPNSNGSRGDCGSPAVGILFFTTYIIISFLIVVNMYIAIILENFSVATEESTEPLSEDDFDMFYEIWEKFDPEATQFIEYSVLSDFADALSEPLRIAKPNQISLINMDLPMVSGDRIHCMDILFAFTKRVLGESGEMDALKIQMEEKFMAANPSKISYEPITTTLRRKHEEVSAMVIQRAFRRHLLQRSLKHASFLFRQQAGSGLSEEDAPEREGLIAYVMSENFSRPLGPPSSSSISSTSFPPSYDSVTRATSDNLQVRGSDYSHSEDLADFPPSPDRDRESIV
Conditions: not given; call rule not given here
For `O=C(c1ccnc2[nH]ccc12)N1CCC(F)(F)[C@@H](Oc2ccc3ccccc3n2)C1`, the “inhibition (INH)” value is on record as “Active”.
Turning to `O=C(c1nccc2[nH]ccc12)N1CCC(F)(F)[C@@H](Oc2ccc3ccccc3n2)C1`, the “inhibition (INH)” value is recorded as “Active”.
Molecule `O=C(c1ccccc1-n1nccn1)N1CCC(F)(F)[C@@H](Oc2ccc3ccccc3n2)C1` had an INH of 6.7 µM.

System in a further data set: not listed separately
In words: Antagonist activity at human OX1 receptor Ile408-Val mutant expressed on CHO cell membrane assessed as inhibition of Ala-6,12 orexin-A-induced calcium increase preincubated for 5 mins prior to Ala-6,12 orexin-A addition measured at 1 sec intervals for 1 min by Fluo-4AM dye-based FLIPR assay.
Conditions: not given
`O=C(c1ccccc1-n1nccn1)N1CCC(F)(F)[C@@H](Oc2ccc3ccccc3n2)C1`: the half-inhibitory concentration (IC50) was 89 nM.

Another data set addresses T1, Orexin receptor type 2 (Homo sapiens, UniProt O43614).
T1 sequence (O43614 whole entry): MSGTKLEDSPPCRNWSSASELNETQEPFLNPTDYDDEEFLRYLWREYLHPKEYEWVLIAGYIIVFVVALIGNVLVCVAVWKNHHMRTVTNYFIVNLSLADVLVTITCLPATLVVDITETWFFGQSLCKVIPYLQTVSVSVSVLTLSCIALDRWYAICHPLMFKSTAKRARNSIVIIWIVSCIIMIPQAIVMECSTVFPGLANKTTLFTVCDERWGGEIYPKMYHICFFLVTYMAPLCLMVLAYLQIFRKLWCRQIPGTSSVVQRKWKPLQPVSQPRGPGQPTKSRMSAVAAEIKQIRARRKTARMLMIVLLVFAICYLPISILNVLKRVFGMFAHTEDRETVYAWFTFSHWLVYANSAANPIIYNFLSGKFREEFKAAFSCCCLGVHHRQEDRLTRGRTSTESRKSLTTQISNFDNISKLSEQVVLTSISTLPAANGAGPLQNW
The experiment in a line: Displacement of (2S)-N-(2-pyrrol-1-ylphenyl)-1-[2-[1-(tritritiomethyl)benzimidazol-2-yl]sulfanylacetyl]pyrrolidine-2-carboxamide from human OX2 receptor expressed on CHO cell membrane measured after 3 hrs by TopCount method. Type of data set: cell membranes.
Conditions: not given
For `O=C(c1cccc2[nH]cnc12)N1CCC(F)(F)[C@@H](Oc2ccc3ccccc3n2)C1`, the Ki was found to be 1410 nM.
Molecule `O=C(c1ccnc2[nH]ccc12)N1CCC(F)(F)[C@@H](Oc2ccc3ccccc3n2)C1` had a Ki of 1560 nM.
Same read-out and setting: the value for `O=C(c1ccccc1-n1cccn1)N1CCC(F)(F)[C@@H](Oc2ccc3ccccc3n2)C1` was 271 nM.
Take `O=C(c1cccc2[nH]ccc12)N1CCC(F)(F)[C@@H](Oc2ccc3ccccc3n2)C1`: the affinity, expressed as Ki, was 120 nM.
The same measure, in the same setting: in the case of `O=C(c1nccc2[nH]ccc12)N1CCC(F)(F)[C@@H](Oc2ccc3ccccc3n2)C1` it was 521 nM; in that of `O=C(c1cccc2[nH]ncc12)N1CCC(F)(F)[C@@H](Oc2ccc3ccccc3n2)C1`, over 1930 nM.

For a further data set, the species on record is Rattus norvegicus. The experiment in a line: Selectivity index, ratio of IC50 for rat OX2 receptor to IC50 for rat OX1 receptor.
Conditions: not given
Turning to `O=C(c1ccccc1-n1nccn1)N1CCC(F)(F)[C@@H](Oc2ccc3ccccc3n2)C1`, the Ratio IC50 was found to be 119.

The next data set concerns the target Voltage-dependent L-type calcium channel subunit alpha-1C (Homo sapiens, UniProt Q13936). In words: Inhibition of Cav1.2 (unknown origin).
Conditions: not given
`O=C(c1ccnc2[nH]ccc12)N1CCC(F)(F)[C@@H](Oc2ccc3ccccc3n2)C1`: the “inhibition (INH)” value is reported as “Active”.
Still for that read-out and setting: in the case of `O=C(c1nccc2[nH]ccc12)N1CCC(F)(F)[C@@H](Oc2ccc3ccccc3n2)C1` it was “Active”.
Turning to `O=C(c1ccccc1-n1nccn1)N1CCC(F)(F)[C@@H](Oc2ccc3ccccc3n2)C1`, the INH is 3.8 µM.

The next data set concerns the target T2, Orexin/Hypocretin receptor type 1 (Homo sapiens) (UniProt O43613).
T2 sequence (whole entry): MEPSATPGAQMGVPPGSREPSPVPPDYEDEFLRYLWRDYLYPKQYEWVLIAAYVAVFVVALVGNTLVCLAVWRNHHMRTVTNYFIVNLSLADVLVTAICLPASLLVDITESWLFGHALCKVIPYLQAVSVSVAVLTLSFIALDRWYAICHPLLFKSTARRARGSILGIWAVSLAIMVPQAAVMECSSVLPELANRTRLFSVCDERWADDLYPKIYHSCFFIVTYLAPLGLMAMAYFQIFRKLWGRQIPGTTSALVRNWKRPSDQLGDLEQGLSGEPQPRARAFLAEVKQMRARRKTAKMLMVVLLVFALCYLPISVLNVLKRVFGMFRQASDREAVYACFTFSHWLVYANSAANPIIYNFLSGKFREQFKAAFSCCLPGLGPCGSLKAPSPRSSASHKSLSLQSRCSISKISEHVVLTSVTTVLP
In words: Potency index, ratio of PE8 Ki to compound Ki for human OX1 receptor.
Conditions: not given
As for `O=C(c1ccccc1-n1cccn1)N1CCC(F)(F)[C@@H](Oc2ccc3ccccc3n2)C1`, the Ratio Ki was 2.

System in the next data set: not listed separately
In words: Displacement of (2S)-N-(2-phenylphenyl)-1-[2-[1-(tritritiomethyl)benzimidazol-2-yl]sulfanylacetyl]pyrrolidine-2-carboxamide from human OX1 receptor Ile408-Val mutant expressed on CHO cell membrane measured after 3 hrs by TopCount method. Type of data set: cell membranes.
Conditions: not given
In the case of `O=C(c1cccc2[nH]cnc12)N1CCC(F)(F)[C@@H](Oc2ccc3ccccc3n2)C1`, the Ki amounted to 3.8 nM.
On the same count and under the same terms, the value for `O=C(c1ccnc2[nH]ccc12)N1CCC(F)(F)[C@@H](Oc2ccc3ccccc3n2)C1` was 2.5 nM; that for `O=C(c1ccccc1-n1cccn1)N1CCC(F)(F)[C@@H](Oc2ccc3ccccc3n2)C1` was 0.48 nM.
In turn, `O=C(c1cccc2[nH]ccc12)N1CCC(F)(F)[C@@H](Oc2ccc3ccccc3n2)C1` yielded a Ki of 0.5 nM.
Same read-out and setting: the value for `O=C(c1nccc2[nH]ccc12)N1CCC(F)(F)[C@@H](Oc2ccc3ccccc3n2)C1` was 1.6 nM.
Still for that read-out and setting: the value for `O=C(c1cccc2[nH]ncc12)N1CCC(F)(F)[C@@H](Oc2ccc3ccccc3n2)C1` was 2.6 nM; that for `O=C(c1ccccc1-n1nccn1)N1CCC(F)(F)[C@@H](Oc2ccc3ccccc3n2)C1` was 1.3 nM.

System in the next data set: not listed separately
The experiment in a line: Oral bioavailability in rat at 10 mg/kg. The settings on record: in vivo. Type of data set: ADME, organism-based.
The molecule `O=C(c1cccc2[nH]cnc12)N1CCC(F)(F)[C@@H](Oc2ccc3ccccc3n2)C1` gave a bioavailability of 10%.

System in a further data set: not listed separately
In words: Protein binding in human plasma. It counts as ADME, cell-free. The conditions noted are these: read-out: PPB (converted).
Turning to `O=C(c1ccccc1-n1nccn1)N1CCC(F)(F)[C@@H](Oc2ccc3ccccc3n2)C1`, the fraction unbound was under 0.01.

The next data set deals with CHO. The experiment in a line: Selectivity index, ratio of Ki for human OX2 receptor expressed on CHO cell membrane to Ki for Ile408-Val variant human OX1 receptor expressed on CHO cell membrane. Type of data set: cell-based.
Conditions: not given
Turning to `O=C(c1cccc2[nH]cnc12)N1CCC(F)(F)[C@@H](Oc2ccc3ccccc3n2)C1`, the Ratio Ki was determined as 371.
The same measure, in the same setting: in the case of `O=C(c1ccnc2[nH]ccc12)N1CCC(F)(F)[C@@H](Oc2ccc3ccccc3n2)C1` it was 626.
On the same count and under the same terms, the value for `O=C(c1ccccc1-n1cccn1)N1CCC(F)(F)[C@@H](Oc2ccc3ccccc3n2)C1` was 564; that for `O=C(c1cccc2[nH]ccc12)N1CCC(F)(F)[C@@H](Oc2ccc3ccccc3n2)C1` was 240; that for `O=C(c1nccc2[nH]ccc12)N1CCC(F)(F)[C@@H](Oc2ccc3ccccc3n2)C1` was 325.
For the molecule `O=C(c1cccc2[nH]ncc12)N1CCC(F)(F)[C@@H](Oc2ccc3ccccc3n2)C1`, the Ratio Ki was over 744.
As to `O=C(c1ccccc1-n1nccn1)N1CCC(F)(F)[C@@H](Oc2ccc3ccccc3n2)C1`, the Ratio Ki is 400 to 401.

In another data set the target is T1, Orexin receptor type 2. Type of data set: functional, cell-based, CHO.
Conditions: not given
The molecule `O=C(c1ccccc1-n1nccn1)N1CCC(F)(F)[C@@H](Oc2ccc3ccccc3n2)C1` had a half-inhibitory concentration (IC50) of 4180 nM.

System in a further data set: not listed separately
In words: Aqueous solubility of the compound at pH 2. Type of data set: physicochemical. The conditions noted are these: aqueous medium.
Regarding `O=C(c1ccnc2[nH]ccc12)N1CCC(F)(F)[C@@H](Oc2ccc3ccccc3n2)C1`, the solubility was over 150 µM.
`O=C(c1nccc2[nH]ccc12)N1CCC(F)(F)[C@@H](Oc2ccc3ccccc3n2)C1` came in with a solubility of over 150 µM.
In turn, `O=C(c1ccccc1-n1nccn1)N1CCC(F)(F)[C@@H](Oc2ccc3ccccc3n2)C1` registered a solubility of under 26 µM.

The target in another data set is T3, Orexin/Hypocretin receptor type 1 (Rattus norvegicus, UniProt P56718).
T3 sequence (P56718 whole entry): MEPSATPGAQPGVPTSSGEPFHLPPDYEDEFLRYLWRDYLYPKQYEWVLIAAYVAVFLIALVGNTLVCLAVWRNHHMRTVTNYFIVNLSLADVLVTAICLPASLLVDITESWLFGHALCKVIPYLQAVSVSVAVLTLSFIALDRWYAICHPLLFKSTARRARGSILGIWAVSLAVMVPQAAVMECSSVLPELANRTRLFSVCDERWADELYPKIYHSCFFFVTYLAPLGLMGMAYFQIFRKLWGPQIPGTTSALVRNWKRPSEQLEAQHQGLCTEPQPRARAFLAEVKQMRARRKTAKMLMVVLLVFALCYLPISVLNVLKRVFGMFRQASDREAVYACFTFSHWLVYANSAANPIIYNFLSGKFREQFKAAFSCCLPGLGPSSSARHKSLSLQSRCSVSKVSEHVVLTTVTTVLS
The experiment in a line: Antagonist activity at rat OX1 receptor assessed as inhibition of Ala-6,12 orexin-A-induced calcium increase preincubated for 5 mins prior to Ala-6,12 orexin-A addition measured at 1 sec intervals for 1 min by Fluo-4AM dye-based FLIPR assay. It counts as functional.
Conditions: not given
Turning to `O=C(c1ccccc1-n1nccn1)N1CCC(F)(F)[C@@H](Oc2ccc3ccccc3n2)C1`, the IC50 is 11 nM.

System in the next data set: not listed separately
In words: Protein binding in dog plasma. It counts as ADME, cell-free, Canis lupus familiaris. The conditions noted are these: read-out: PPB (converted).
Regarding `O=C(c1ccccc1-n1nccn1)N1CCC(F)(F)[C@@H](Oc2ccc3ccccc3n2)C1`, the fraction unbound was under 0.01.

System in the next data set: not listed separately
The experiment in a line: Intrinsic clearance in rat liver microsomes. It counts as ADME. The settings on record: read-out: CLH.
Take `O=C(c1cccc2[nH]cnc12)N1CCC(F)(F)[C@@H](Oc2ccc3ccccc3n2)C1`: the CLint scaled worked out at 829 mL/min/kg.
On the same count and under the same terms, the value for `O=C(c1cccc2[nH]ncc12)N1CCC(F)(F)[C@@H](Oc2ccc3ccccc3n2)C1` was 761 mL/min/kg.

In the next data set the target is T4, Orexin receptor type 2 (Rattus norvegicus, UniProt P56719).
T4 sequence (P56719 whole entry): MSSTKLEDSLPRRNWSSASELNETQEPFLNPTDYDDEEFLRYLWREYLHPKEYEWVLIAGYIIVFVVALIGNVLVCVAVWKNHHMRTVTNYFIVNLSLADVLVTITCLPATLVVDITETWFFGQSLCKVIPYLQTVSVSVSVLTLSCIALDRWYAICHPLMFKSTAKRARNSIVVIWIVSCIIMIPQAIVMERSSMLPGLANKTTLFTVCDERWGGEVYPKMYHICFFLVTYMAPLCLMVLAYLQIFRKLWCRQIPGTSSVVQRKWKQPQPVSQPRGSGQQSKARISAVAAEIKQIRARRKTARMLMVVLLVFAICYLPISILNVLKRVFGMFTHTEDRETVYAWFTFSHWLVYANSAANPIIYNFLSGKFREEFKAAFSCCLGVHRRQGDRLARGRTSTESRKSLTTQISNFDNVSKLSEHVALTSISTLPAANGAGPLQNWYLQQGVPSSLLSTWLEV
It counts as functional.
Conditions: not given
`O=C(c1ccccc1-n1nccn1)N1CCC(F)(F)[C@@H](Oc2ccc3ccccc3n2)C1` returned an IC50 of 1310 to 4180 nM.

System in a further data set: not listed separately
In words: Clearance in rat at 2 mg/kg, iv. Type of data set: ADME, organism-based. The conditions noted are these: in vivo.
In turn, `O=C(c1cccc2[nH]cnc12)N1CCC(F)(F)[C@@H](Oc2ccc3ccccc3n2)C1` had a clearance of 69 mL/min/kg.
For `O=C(c1cccc2[nH]ncc12)N1CCC(F)(F)[C@@H](Oc2ccc3ccccc3n2)C1`, the clearance was 87.5 mL/min/kg.
